# Results as given in US11717531B2, “Preeclampsia” (ASTON UNIVERSITY, priority 2015, dated 2023).
# Key:
# [1] = system: sFlt-1; assay: sFlt-1 release from HUVEC, ELISA of conditioned media; assay type: cell-based, human; conditions: 24 hours
# Procedure: (§1) Human umbilical vein endothelial cells (HUVECs) were isolated and cultured in M199 medium as described previously (Bussolati et al, 2001). Experiments were performed on third or fourth passage HUVEC.
# Chemically synthesized double-stranded microRNA mimic and single-stranded inhibitor against miR-122 (mi-122 and anti-122) and miR-374b (mi-374b and anti-374b) were purchased from Qiagen and the efficiency was tested by Qpcr (FIG. 6A, B). HUVECs were trypsinized, and 1×10^6 cells were electroporated with ≈0.6 ug mimic-122 or mimic-374b, =3 ug anti-122 or anti-374 or control molecules using electroporation (Amaxa GmbH, Cologne, Germany) as described previously (Cudmore et al., 2007).
# Enzyme-linked immunosorbent assay (ELISA) kits for human sFlt-1 was obtained from R&D Systems and performed according to the manufacturer's specifications.
# Enzyme-linked immunosorbent assay (ELISA) kits for human sFlt-1, sEng and P1GF were obtained from R&D Systems and performed according to the manufacturer's specifications.
# [2] = system: miR-122; assay: qPCR of miR-122 expression in treated HUVEC; assay type: cell-based, human; conditions: 24 hours
# Procedure: (§2) FIG. 2. MiR-122 and miR-374b are regulated by various agents that regulate sFlt-1 release. HUVEC cells were treated with 10 uM Hemin (A), 2 uM or 20 uM Pravastatin (B) 20 ng/ml VEGF-A (C) or 20 ng/ml VEGF-E (D) for 24 hours. Total RNA of the treated cells was isolated and the expression of miR-122 and miR-374b was measured by quantitative PCR. The relative miR-122 and miR-374b expression was normalized to RNU6.
# (§3) FIG. 3. Hmox1 regulates miR-122 and miR-374b expression. HUVEC cells were infected by adenovirus overexpressiong Hmox1 (A) or transfected with siRNA against Hmox1 (B) for 24 hours and the relative expression of miR-122 and miR-374b was measured by qPCR.
# as §1
# (§4) Sample preparation and real-time quantitative PCR was performed as described previously (Cudmore et al., 2007).
# [3] = system: miR-374b; assay: qPCR of miR-374b expression in treated HUVEC; assay type: cell-based, human; conditions: 24 hours
# Procedure: as §2, §3, §1, §4
# [4] = system: miR-144; assay: qPCR of miR-144 expression in treated HUVEC; assay type: cell-based, human; conditions: hemin 10 uM
# Procedure: as §1, §4
# [5] = system: miR-152; assay: qPCR of miR-152 expression in HUVEC; assay type: cell-based, human; conditions: growth factor 20 ng/ml, 24 hours
# Procedure: FIG. 9 Hypoxia, inflammatory cytokine or angiogenic growth factor stimulation increases microRNA-152 expression in endothelial cells and placental explants. Human placental explants was treated with (A) inflammatory cytokine mix (TNF-α, 20 ng/ml, IFN-γ, 20 ng/ml and IL-1β, 2 ng/ml), (B) hypoxia (1% 02) condition or (C) combination of cytokine mix and hypoxia condition and assayed for miR-152 expression using qPCR. Similarly, HUEVC cells were treated with (D) hypoxia (1% 02) condition, VEGF-E (20 ng/ml, E) or FGF-2 (20 ng/ml, F) for 24 hours and used for qPCR analysis of miR-152 expression. Moreover, overexpression of miR-152 inhibited PlGF release, but not the sFlt-1 and sEng in endothelial cells. HUVECs were electroporated with mimic-152 or control mimic-con. After resting for 24 hours, the transfected cells were treated with vehicle or VEGF-E (20 ng/ml) in the conditioned media. […] Data is shown as mean+SEM and analyzed by Student t-test.
# Human umbilical vein endothelial cells (HUVECs) were isolated and cultured in M199 medium as described previously (Bussolati et al, 2001). […] Briefly, human placental villus explants were incubated under stimulation of test substances or hypoxia condition and collected for quantitative PCR of miR-152. […]
# as §4
# [6] = system: preeclampsia; conditions: low-dose, started before 16 weeks' gestation, high-risk women; cited from earlier work
compound,measurement,setting,value
hemin,recovery of hemin-reduced sFlt-1 release by VEGF-E stimulation,[1]; hemin 10 uM plus VEGF-E,cannot be recovered
same,sFlt-1 release in endothelial cells,[1]; hemin 10 uM,decreased
same,increase of miR-122 expression,[2]; hemin 10 uM,20 fold
same,increase of miR-374b expression,[3]; hemin 10 uM,2.7 fold
same,effect on miR-144 expression,[4],no significant effect
FGF-2: angiogenic growth factor used at 20 ng/ml,elevation of miR-152 expression,[5],~65%
CC(=O)Oc1ccccc1C(=O)O [aspirin],"prevention of PE, severe PE and IUGR",[6],up to 50%
CC[C@H](C)C(=O)O[C@H]1C[C@H](O)C=C2C=C[C@H](C)[C@H](CC[C@@H](O)C[C@@H](O)CC(=O)O)[C@H]21 [pravastatin],induction of miR-122 expression,[2]; pravastatin 2 uM and 20 uM,3-9 fold
same,induction of miR-374b expression,[3]; pravastatin 2 uM and 20 uM,2.7 fold
vascular endothelial growth factor A [VEGF-A],decrease of miR-122 expression,[2]; growth factor 20 ng/ml,47%
same,reduction of miR-374b expression,[3]; growth factor 20 ng/ml,20%
